Data from patent publication US7964720B2, “Method of making porphyrins” (North Carolina State University, priority 2007, dated 2011).

Columns and labels:
[1] = Source text: 4. Solubility. […] We compared the solubility of 1, Pd-1, Zn-1 and Mg-1 in common organic solvents (CH2Cl2, THF, MeOH, ethyl acetate, toluene).
[2] = background statement; cited from earlier work
[3] = Stability of the magnesium chelate in solution and on silica column chromatography; assay type: physicochemical
Method: Thus, refluxing a mixture of 2 (100 mM) in toluene containing DBU (10 equiv vs. 2) and MgBr2 (3 equiv) in the presence of air afforded Mg(II)porphine (Mg-1) in 41% yield. Note that no quinone oxidant is required. Mg(II)porphine was purified by filtration through an alumina column. No free base porphine was detected in the reaction mixture. […] Neither starting material nor macrocyclic byproducts were detected. Therefore we performed the purification of Mg-1 without column chromatography. The crude reaction mixture was concentrated. The resulting oily material was treated with THF, filtered (to remove the polymeric material and inorganic salt), and filtrate was concentrated. Subsequent washing with water (to remove an excess of DBU) and crystallization from ethanol/water afforded Mg-1 in satisfactory purity. […] Note that Mg(II)porphine (Mg-1) was previously prepared by metalation of 1.^2

Compound	general trend in solubility [1]	solubility in common organic solvents [1]	solubility of the free base [2]	stability in solution ([3]; in solution)	behaviour upon silica column chromatography ([3]; silica column chromatography)
C1=Cc2cc3ccc(cc4nc(cc5ccc(cc1n2)[nH]5)C=C4)[nH]3 [compound 1, Porphine]	Pd-1<1<Zn-1<<Mg-1	poor solubility	extremely low solubility	–	–
Mg(II)porphine [Mg-1]	Pd-1<1<Zn-1<<Mg-1	sufficiently high	–	stable in solution	partial decomplexation
Zn(II)porphine [Zn-1]	Pd-1<1<Zn-1<<Mg-1	–	–	–	–
Pd(II)porphine [Pd-1]	Pd-1<1<Zn-1<<Mg-1	–	–	–	–
